Assay results taken from patent US20200115357A1, “LIVER X RECEPTORS (LXR) MODULATORS” (Phenex-FXR GmbH, priority 2017, published 2020).

What was measured:
Assay type in all cases: in vivo
[1] = Short term HFD mouse model, plasma and liver exposure; settings: three oral doses of 20 mg/kg, HFD C57BL/6J mice; for Kp at 4 h: mouse, liver/plasma, read-out: liver/plasma ratio, 4 h; for liver exposure, 4 h / plasma exposure, 4 h: 4 h after final treatment
Description: (§1) Short Term HFD Mouse Model:
(§2) The in vivo transcriptional regulation of several LXR target genes by LXR modulators was assessed in mice.
For this, C57BL/6J were purchased from Elevage Janvier (Rennes, France) at the age of 8 weeks. After an acclimation period of two weeks, animals were preferred on a high fat diet (HFD) (Ssniff Spezialdiaten GmbH, Germany, Surwit EF D12330 mod, Cat. No. E15771-34), with 60 kcal % from fat plus 1% (w/w) extra cholesterol (Sigma-Aldrich, St. Louis, Mo.) for 5 days. Animals were maintained on this diet during treatment with LXR modulators. The test compounds were formulated in 0.5% hydroxypropylmethylcellulose (HPMC) and administered in three doses (20 mg/kg each) by oral gavage according to the following schedule: on day one, animals received treatment in the morning and the evening (ca. 17:00), on day two animals received the final treatment in the morning after a 4 h fast and were sacrificed 4 h thereafter. Animal work was conducted according to the national guidelines for animal care in Germany.
(§3) Upon termination, liver was collected, dipped in ice cold PBS for 30 seconds and cut into appropriate pieces. Pieces were snap frozen in liquid nitrogen and stored at −80° C. For the clinical chemistry analysis from plasma, alanine aminotransferase (ALT, IU/mL), cholesterol (CHOL, mg/dL) and triglycerides (TG, mg/dL) were determined using a fully-automated bench top analyzer (Respons®910, DiaSys Greiner GmbH, Flacht, Germany) with system kits provided by the manufacturer.

Fasn = assay: Short term HFD mouse model, gene expression in liver tissue: Fasn; settings: liver mRNA (qPCR, normalized to Tbp), three oral doses of 20 mg/kg, HFD mice
Description: as §1, §2
(§4) For this, C57BL/6J were purchased from Elevage Janvier (Rennes, France) at the age of 8 weeks. After an acclimation period of two weeks, animals were preferred on a high fat diet (HFD) (Ssniff Spezialdiaten GmbH, Germany, Surwit EF D12330 mod, Cat. No. E15771-34), with 60 kcal % from fat plus 1% (w/w) extra cholesterol (Sigma-Aldrich, St. Louis, Mo.) for 5 days. Animals were maintained on this diet during treatment with LXR modulators. […]
as §3, with “Pieces were snap frozen in liquid nitrogen and stored at −80° C.” left out, “manufacturer. […]” for “manufacturer.”
(§5) To obtain total RNA from frozen liver tissue, samples (25 mg liver tissue) were first homogenized with RLA buffer (4M guanidin thiocyanate, 10 mM Tris, 0.97% w:v β-mercapto-ethanol). […] Quantitative PCR was performed and analyzed using Prime time Gene expression master mix (Integrated DNA Technologies, Coralville, Iowa, USA) and a 384-format ABI 7900HT Sequence Detection System (Applied Biosystems, Foster City, USA). […]

Scd1 = assay: Short term HFD mouse model, gene expression in liver tissue: Scd1; settings: liver mRNA (qPCR, normalized to Tbp), three oral doses of 20 mg/kg, HFD mice
Description: as §1, §2, §4
as §3, with “Pieces were snap frozen in liquid nitrogen and stored at −80° C.” left out, “manufacturer. […]” for “manufacturer.”
as §5

Srebp1c = assay: Short term HFD mouse model, gene expression in liver tissue: Srebp1c; settings: liver mRNA (qPCR, normalized to Tbp), three oral doses of 20 mg/kg, HFD mice
Description: as §1, §2, §4
as §3, with “Pieces were snap frozen in liquid nitrogen and stored at −80° C.” left out, “manufacturer. […]” for “manufacturer.”
as §5

Hepatic LXR target genes = assay: Short term HFD mouse model, hepatic LXR target genes (summary in words); settings: multiple oral dosing in mice
Description: as §1, §2, §4
as §5, with “USA). The expression of the following genes was analysed: Stearoyl-CoA desaturase1 (Scd1), fatty acid synthase (Fas) and sterol regulatory element-binding protein1 (Srebp1).” for “USA).”

| SMILES | Kp at 4 h [1] | liver exposure, 4 h [1] | plasma exposure, 4 h [1] | Fasn suppression compared to vehicle (Fasn) | Scd1 suppression compared to vehicle (Scd1) | Srebp1c suppression compared to vehicle (Srebp1c) | Hepatic LXR target genes (in words) (Hepatic LXR target genes) |
| --- | --- | --- | --- | --- | --- | --- | --- |
| Cc1cc(C)c(S(=O)(=O)N(Cc2ccc(C(F)(F)F)o2)Cc2ccc(-c3cccc(C(C)(C)C(=O)O)c3)cc2Cl)c(C)c1 [10/5] | 33.3 | 4.372 µM | 131 nM | 0.41 | 0.38 | 0.33 | effectively suppressed |
| Cc1ccc2ccccc2c1S(=O)(=O)N(Cc1ccc(-c2cccc(C(C)(C)C(=O)O)c2)cc1)Cc1ccc(C(F)(F)F)o1 [Example 24, 2-Methyl-2-(4′-(((2-methyl-N-((5-(trifluoromethyl)furan-2-yl)methyl)naphthalene)-1-sulfonamido)methyl)-[1,1′-biphenyl]-3-yl)propanoic acid] | 52.4 | 5.359 µM | 102 nM | 0.23 | 0.25 | 0.25 | effectively suppressed |
